# Reference: ChEMBL document CHEMBL3627608, “Crystal structures of human RIP2 kinase catalytic domain complexed with ATP-competitive inhibitors: Foundations for understanding inhibitor selectivity” (Bioorg Med Chem, 2015)
# Legend:
# [1] = target: Tyrosine-protein kinase HCK (Homo sapiens) (UniProt P08631); assay: Inhibition of HCK (unknown origin) at 10 uM after 120 mins P33 radiolabeled kinase activity assay
# [2] = target: T1, Homeodomain-interacting protein kinase 4 (Homo sapiens) (UniProt Q8NE63); assay: Inhibition of HIPK4 (unknown origin) at 10 uM after 120 mins P33 radiolabeled kinase activity assay
# T1 sequence (whole entry): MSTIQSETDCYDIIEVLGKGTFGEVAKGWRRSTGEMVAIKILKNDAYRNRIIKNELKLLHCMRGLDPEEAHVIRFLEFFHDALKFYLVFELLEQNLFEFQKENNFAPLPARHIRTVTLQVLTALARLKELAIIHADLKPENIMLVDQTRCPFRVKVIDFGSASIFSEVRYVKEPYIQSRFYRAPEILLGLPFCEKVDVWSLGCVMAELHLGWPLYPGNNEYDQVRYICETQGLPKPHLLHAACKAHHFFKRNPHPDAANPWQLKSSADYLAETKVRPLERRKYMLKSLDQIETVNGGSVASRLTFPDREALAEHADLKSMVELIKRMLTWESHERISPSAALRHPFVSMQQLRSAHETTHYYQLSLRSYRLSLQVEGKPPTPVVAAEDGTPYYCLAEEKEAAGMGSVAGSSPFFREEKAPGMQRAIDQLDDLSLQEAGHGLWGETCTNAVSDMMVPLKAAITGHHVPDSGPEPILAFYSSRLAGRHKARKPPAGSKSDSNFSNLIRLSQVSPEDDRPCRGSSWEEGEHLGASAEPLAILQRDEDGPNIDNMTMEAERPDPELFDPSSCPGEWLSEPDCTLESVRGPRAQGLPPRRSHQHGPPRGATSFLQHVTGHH
# [3] = target: T2, Mitogen-activated protein kinase kinase kinase 2 (Homo sapiens) (UniProt Q9Y2U5); assay: Inhibition of MEKK2 (unknown origin) at 10 uM after 120 mins P33 radiolabeled kinase activity assay
# T2 sequence (whole entry): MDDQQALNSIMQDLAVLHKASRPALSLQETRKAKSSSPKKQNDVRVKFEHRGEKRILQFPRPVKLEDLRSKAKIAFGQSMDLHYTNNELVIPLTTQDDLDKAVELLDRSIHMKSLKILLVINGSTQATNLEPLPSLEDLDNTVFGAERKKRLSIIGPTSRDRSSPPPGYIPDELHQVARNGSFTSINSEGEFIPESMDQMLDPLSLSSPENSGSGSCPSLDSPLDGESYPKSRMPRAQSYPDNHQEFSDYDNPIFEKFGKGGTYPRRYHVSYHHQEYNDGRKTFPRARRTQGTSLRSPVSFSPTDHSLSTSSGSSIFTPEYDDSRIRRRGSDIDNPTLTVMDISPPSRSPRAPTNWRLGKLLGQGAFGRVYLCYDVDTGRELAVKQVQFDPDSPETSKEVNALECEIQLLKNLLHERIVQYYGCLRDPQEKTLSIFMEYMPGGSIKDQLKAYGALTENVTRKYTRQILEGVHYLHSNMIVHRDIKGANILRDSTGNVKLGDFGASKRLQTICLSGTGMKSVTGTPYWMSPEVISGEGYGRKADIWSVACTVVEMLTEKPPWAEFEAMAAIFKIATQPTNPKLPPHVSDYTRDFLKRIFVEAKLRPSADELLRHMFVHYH
# [4] = target: T3, Muscle, skeletal receptor tyrosine-protein kinase (Homo sapiens) (UniProt O15146); assay: Inhibition of MUSK (unknown origin) at 10 uM after 120 mins P33 radiolabeled kinase activity assay
# T3 sequence (whole entry): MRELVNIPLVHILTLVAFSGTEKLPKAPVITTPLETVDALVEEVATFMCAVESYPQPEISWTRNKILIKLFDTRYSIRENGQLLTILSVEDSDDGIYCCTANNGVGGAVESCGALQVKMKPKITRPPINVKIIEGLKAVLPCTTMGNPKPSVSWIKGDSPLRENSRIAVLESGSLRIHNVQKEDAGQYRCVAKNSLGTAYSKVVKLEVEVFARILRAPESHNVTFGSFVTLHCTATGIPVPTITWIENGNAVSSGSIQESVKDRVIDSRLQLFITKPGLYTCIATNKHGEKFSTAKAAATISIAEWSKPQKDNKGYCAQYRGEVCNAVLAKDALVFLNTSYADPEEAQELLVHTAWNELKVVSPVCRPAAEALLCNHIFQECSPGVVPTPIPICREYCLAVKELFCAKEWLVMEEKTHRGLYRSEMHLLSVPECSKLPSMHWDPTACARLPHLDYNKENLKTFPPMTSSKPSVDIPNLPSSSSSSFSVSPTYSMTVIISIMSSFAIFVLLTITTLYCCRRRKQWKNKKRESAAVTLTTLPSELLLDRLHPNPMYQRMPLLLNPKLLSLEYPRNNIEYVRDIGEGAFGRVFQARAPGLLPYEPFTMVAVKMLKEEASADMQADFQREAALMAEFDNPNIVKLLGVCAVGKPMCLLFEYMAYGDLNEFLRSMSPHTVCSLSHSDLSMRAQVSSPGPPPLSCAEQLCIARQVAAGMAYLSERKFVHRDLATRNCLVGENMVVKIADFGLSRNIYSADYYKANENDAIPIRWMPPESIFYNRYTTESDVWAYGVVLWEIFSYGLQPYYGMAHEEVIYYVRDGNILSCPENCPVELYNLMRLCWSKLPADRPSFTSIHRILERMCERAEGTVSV
# [5] = target: T4, Testis-specific serine/threonine-protein kinase 1 (Homo sapiens) (UniProt Q9BXA7); assay: Inhibition of STK22D (unknown origin) at 10 uM after 120 mins P33 radiolabeled kinase activity assay
# T4 sequence (whole entry): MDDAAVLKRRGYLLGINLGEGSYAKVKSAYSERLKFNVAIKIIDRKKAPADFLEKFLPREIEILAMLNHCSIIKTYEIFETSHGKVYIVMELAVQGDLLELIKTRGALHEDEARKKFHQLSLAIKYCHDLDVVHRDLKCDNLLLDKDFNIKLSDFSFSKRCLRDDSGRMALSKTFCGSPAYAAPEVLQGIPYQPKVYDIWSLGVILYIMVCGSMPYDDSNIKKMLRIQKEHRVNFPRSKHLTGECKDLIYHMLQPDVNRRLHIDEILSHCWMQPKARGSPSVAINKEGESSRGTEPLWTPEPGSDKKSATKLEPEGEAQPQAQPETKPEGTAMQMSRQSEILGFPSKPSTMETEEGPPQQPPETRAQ
# [6] = target: Serine/threonine-protein kinase WNK3 (Homo sapiens) (UniProt Q9BYP7); assay: Inhibition of WNK3 (unknown origin) at 10 uM after 120 mins P33 radiolabeled kinase activity assay
# Serine/threonine-protein kinase WNK3 (Homo sapiens), sequence (Q9BYP7 whole entry): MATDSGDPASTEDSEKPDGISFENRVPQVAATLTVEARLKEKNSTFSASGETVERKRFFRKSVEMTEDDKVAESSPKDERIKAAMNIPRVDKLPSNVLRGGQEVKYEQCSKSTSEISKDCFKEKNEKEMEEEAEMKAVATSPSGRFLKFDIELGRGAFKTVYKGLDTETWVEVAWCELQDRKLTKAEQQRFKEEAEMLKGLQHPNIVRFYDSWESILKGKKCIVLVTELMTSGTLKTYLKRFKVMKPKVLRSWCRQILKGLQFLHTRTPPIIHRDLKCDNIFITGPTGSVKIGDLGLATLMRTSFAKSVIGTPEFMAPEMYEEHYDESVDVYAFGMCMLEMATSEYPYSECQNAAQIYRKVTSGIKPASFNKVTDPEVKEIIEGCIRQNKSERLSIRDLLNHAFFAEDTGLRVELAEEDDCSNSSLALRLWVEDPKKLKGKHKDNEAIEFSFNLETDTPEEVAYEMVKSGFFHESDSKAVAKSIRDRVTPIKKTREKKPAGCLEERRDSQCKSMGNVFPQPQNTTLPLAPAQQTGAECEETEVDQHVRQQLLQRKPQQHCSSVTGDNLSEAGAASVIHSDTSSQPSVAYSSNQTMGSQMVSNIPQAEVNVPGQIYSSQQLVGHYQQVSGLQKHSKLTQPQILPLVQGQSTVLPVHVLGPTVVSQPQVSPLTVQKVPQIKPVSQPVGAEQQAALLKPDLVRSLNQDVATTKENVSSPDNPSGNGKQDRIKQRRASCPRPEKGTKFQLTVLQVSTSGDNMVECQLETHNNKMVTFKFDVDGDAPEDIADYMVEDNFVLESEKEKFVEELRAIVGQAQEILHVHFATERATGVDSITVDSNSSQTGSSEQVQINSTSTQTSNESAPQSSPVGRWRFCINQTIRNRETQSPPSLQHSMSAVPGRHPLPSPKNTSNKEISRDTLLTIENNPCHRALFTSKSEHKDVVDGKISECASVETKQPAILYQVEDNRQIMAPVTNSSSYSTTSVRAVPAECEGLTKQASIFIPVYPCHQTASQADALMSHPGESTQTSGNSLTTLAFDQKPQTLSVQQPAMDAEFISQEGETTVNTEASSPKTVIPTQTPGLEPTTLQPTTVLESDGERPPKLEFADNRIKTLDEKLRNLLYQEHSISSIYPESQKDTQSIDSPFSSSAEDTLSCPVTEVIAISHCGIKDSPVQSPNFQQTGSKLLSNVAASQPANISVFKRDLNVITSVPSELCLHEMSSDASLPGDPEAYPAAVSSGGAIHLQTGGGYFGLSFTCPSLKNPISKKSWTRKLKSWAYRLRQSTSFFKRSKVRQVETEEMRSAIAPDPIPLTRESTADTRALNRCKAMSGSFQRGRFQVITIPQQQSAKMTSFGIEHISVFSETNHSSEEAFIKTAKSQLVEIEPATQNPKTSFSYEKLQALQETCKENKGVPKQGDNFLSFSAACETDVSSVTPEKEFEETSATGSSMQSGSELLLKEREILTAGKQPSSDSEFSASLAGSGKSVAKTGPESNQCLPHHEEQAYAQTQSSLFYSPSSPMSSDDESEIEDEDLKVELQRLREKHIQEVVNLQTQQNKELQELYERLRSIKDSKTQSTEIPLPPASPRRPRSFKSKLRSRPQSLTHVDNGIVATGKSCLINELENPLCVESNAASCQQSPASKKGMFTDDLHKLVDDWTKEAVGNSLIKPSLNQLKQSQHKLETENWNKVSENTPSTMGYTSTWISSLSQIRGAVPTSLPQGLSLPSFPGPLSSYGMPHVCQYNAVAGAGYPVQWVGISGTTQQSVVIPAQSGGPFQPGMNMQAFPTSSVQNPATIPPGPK
# [7] = target: Protein-tyrosine kinase 6 (Homo sapiens) (UniProt Q13882); assay: Inhibition of BRK (unknown origin) at 10 uM after 120 mins P33 radiolabeled kinase activity assay
# Protein-tyrosine kinase 6 (Homo sapiens), sequence (Q13882 whole entry, looked up): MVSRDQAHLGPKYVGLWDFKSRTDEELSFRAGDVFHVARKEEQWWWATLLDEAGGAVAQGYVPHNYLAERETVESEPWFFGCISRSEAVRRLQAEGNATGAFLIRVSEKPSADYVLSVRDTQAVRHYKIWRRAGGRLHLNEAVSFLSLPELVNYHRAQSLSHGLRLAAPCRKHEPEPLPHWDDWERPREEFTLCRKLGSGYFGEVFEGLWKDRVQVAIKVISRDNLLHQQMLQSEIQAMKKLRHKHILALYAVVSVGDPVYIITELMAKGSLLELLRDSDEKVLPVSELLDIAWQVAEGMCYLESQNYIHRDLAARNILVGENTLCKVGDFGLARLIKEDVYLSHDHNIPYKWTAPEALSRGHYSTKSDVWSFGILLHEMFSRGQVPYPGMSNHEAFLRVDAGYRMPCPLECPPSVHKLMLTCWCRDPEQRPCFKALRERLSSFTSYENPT
# [8] = target: Tyrosine-protein kinase BTK (Homo sapiens) (UniProt Q06187); assay: Inhibition of BTK (unknown origin) at 10 uM after 120 mins P33 radiolabeled kinase activity assay
# Tyrosine-protein kinase BTK (Homo sapiens), sequence (Q06187 whole entry): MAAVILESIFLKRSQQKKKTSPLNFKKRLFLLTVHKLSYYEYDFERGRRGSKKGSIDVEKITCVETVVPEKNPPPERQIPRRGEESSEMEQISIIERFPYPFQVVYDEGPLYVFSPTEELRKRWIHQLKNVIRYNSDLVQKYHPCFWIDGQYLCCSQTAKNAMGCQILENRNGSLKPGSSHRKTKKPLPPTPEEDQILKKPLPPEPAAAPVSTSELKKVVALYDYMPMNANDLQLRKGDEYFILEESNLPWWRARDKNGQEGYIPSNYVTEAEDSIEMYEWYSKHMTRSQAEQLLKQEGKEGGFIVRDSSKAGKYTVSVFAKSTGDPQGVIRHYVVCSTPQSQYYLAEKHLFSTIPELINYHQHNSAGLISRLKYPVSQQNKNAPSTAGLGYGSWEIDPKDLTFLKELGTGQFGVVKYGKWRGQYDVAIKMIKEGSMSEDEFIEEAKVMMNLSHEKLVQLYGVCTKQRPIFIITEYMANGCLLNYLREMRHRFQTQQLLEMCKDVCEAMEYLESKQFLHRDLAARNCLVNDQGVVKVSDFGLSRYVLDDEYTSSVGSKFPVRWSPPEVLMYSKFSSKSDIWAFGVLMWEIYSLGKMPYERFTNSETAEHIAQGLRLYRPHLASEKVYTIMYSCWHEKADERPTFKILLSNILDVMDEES
# [9] = target: CDK9/Cyclin K (Homo sapiens) (UniProt P50750+O75909); assay: Inhibition of CDK9/cyclin K (unknown origin) at 10 uM after 120 mins P33 radiolabeled kinase activity assay; assay type: protein-complex assay
# Tyrosine-protein kinase HCK (Homo sapiens), sequence (P08631 2-526 limits assumed): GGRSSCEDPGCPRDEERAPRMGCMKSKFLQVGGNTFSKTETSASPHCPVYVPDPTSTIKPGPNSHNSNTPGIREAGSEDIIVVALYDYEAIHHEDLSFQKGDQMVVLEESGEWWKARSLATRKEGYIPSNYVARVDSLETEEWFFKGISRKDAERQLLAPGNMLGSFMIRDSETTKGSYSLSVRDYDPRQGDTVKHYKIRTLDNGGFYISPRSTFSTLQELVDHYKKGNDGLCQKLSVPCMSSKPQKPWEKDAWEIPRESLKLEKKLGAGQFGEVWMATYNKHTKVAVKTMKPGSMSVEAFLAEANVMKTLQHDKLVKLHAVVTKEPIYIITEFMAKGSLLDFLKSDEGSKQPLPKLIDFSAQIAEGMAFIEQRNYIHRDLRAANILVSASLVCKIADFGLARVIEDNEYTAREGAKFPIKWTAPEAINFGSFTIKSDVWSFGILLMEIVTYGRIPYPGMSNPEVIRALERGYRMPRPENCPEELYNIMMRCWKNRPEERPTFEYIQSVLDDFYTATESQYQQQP
inhibition [1] [%],inhibition [2] [%],inhibition [3] [%],inhibition [4] [%],inhibition [5] [%],inhibition [6] [%],inhibition [7] [%],inhibition [8] [%],inhibition [9] [%],SMILES
99.2,97,55,33.2,13.6,25.9,100,96,6.34,CS(=O)(=O)c1cccc(Nc2nccc(-c3sc(N4CCOCC4)nc3-c3cccc(NS(=O)(=O)c4c(F)cccc4F)c3)n2)c1
70,-9.28,16.7,-5.11,7.17,-2.44,84.4,19.4,3.39,COCCNC(=O)c1ccc2c(c1)nc(-c1cnc(-c3ccc(Cl)cc3)[nH]1)n2CCOC
91.1,96.7,23.3,16.4,7.33,1.93,95.7,20.3,37,CC(C)(C)c1cc(NC(=O)Nc2ccc(Oc3ccncc3)cc2)no1
